Values after ≈ are worked out from the molar mass of the structure shown.
Key:
A. baumannii PBP1a = biological target: T1, A. baumannii PBP1a (Acinetobacter baumannii, UniProt A0ABX6CK30); experiment: Bocillin-FL competition binding via gel filtration, A. baumannii PBP1a; conditions: competition binding assay using Bocillin-FL via gel filtration; read-out: A. baumannii PBP1a Potency
T1 sequence (A0ABX6CK30 1-851): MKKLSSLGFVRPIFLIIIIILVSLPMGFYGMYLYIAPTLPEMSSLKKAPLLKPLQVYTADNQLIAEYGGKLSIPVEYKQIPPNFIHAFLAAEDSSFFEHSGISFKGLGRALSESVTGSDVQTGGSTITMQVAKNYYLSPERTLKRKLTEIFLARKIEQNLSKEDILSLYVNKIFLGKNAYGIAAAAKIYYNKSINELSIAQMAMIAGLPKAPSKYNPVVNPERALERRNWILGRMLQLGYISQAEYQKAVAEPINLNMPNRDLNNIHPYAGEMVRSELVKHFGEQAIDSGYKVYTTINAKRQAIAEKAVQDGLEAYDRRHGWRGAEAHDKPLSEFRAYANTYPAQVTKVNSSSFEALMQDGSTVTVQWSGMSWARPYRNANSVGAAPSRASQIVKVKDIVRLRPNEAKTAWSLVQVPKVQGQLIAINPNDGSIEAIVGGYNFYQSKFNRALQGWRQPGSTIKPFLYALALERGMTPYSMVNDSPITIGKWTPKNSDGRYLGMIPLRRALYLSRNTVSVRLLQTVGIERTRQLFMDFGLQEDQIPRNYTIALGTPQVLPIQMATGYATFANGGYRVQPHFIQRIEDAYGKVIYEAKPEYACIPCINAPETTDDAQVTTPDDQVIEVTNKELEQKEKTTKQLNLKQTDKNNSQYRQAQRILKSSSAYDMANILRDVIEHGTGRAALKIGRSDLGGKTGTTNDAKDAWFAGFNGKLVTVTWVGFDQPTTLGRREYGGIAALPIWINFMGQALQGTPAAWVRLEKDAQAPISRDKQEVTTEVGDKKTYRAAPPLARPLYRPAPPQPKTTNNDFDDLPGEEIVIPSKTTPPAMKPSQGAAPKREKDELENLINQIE
Procedure, shortened: (§1)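 Competitive equilibrium binding; reporter Bocillin-FL. PBP + inhibitor (titration) pre-incubated → Bocillin-FL, 15 min → gel filtration → fluorescence. EC50 from Hill fit of fraction bound vs [inhibitor].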

B. pseudomallei Bp82 = experiment: microbe, parasite or virus in culture; assay type: cell-based; conditions: Burkholderia pseudomallei, BP82, read-out: Minimum inhibitory concentration, B. pseudomallei Bp82
A. baumannii PBP2 = A. baumannii PBP2 (Acinetobacter baumannii, UniProt D0C8Z9); experiment: Bocillin-FL competition binding via gel filtration, A. baumannii PBP2
Procedure, shortened: as §1

A. baumannii PBP2, sequence (D0C8Z9 whole entry): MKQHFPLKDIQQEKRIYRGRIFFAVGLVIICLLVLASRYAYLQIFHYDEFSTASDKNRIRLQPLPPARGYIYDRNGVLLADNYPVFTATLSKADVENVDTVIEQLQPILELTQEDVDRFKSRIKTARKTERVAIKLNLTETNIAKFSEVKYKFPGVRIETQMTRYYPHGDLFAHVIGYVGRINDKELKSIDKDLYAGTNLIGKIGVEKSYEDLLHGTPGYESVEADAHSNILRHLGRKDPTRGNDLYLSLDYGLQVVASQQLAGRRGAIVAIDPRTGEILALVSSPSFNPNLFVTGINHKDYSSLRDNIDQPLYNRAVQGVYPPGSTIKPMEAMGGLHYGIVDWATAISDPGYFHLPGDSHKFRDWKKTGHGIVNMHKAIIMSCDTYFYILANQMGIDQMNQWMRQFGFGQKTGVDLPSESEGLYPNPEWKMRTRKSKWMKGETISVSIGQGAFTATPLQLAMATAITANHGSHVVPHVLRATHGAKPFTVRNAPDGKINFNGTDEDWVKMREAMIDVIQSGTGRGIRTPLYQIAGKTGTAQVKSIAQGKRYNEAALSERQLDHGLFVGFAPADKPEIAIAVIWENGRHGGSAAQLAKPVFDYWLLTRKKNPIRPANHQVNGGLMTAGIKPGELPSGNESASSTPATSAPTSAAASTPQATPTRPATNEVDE

SMILES | EC50 (A. baumannii PBP1a) [µM] | MIC (B. pseudomallei Bp82) [µg/mL] | EC50 (A. baumannii PBP2) [µM]
CN(CCN1CCN(C(=O)NC(C(=O)N[C@H]2Cc3ccc(F)c(C(=O)O)c3OB2O)c2cc(F)c(O)c(O)c2Cl)C(=O)C1=O)S(=O)(=O)c1cccc(C(N)=O)c1 (stereo partly drawn) [Example 224, (3R)-3-(2-(4-(2-((3-carbamoyl-N-methylphenyl)sulfonamido)ethyl)-2,3-dioxopiperazine-1-carboxamido)-2-(2-chloro-5-fluoro-3,4-dihydroxyphenyl)acetamido)-7-fluoro-2-hydroxy-3,4-dihydro-2H-benzo[e][1,2]oxaborinine-8-carboxylic acid] | < 10 | < 1 | 
O=C(NCCN1CCN(C(=O)N[C@@H](C(=O)N[C@H]2Cc3ccc(F)c(C(=O)O)c3OB2O)c2cc(F)c(O)c(O)c2Cl)C(=O)C1=O)Nc1cccnc1 [Example 222, (R)-3-((R)-2-(2-chloro-5-fluoro-3,4-dihydroxyphenyl)-2-(2,3-dioxo-4-(2-(3-(pyridin-3-yl)ureido)ethyl)piperazine-1-carboxamido)acetamido)-7-fluoro-2-hydroxy-3,4-dihydro-2H-benzo[e][1,2]oxaborinine-8-carboxylic acid] | 10 to 50 | < 1 | 10 to 50
O=C(NCCN1CCN(C(=O)NC(C(=O)N[C@H]2Cc3ccc(F)c(C(=O)O)c3OB2O)c2cc(F)c(O)c(O)c2Cl)C(=O)C1=O)c1ccc(O)cc1 (stereo partly drawn) [Example 214, (3R)-3-(2-(2-chloro-5-fluoro-3,4-dihydroxyphenyl)-2-(4-(2-(4-hydroxybenzamido)ethyl)-2,3-dioxopiperazine-1-carboxamido)acetamido)-7-fluoro-2-hydroxy-3,4-dihydro-2H-benzo[e][1,2]oxaborinine-8-carboxylic acid] | 10 to 50 | 2 to 4 (≈ 2.68 to 5.36 µM) | 10 to 50
O=C(NCCN1CCN(C(=O)NC(C(=O)N[C@H]2Cc3ccc(F)c(C(=O)O)c3OB2O)c2cc(F)c(O)c(O)c2Cl)C(=O)C1=O)c1ccncc1 (stereo partly drawn) [Example 216, (3R)-3-(2-(2-chloro-5-fluoro-3,4-dihydroxyphenyl)-2-(4-(2-(isonicotinamido)ethyl)-2,3-dioxopiperazine-1-carboxamido)acetamido)-7-fluoro-2-hydroxy-3,4-dihydro-2H-benzo[e][1,2]oxaborinine-8-carboxylic acid] | 10 to 50 | < 1 | 10 to 50
O=C(NCCCN1CCN(C(=O)NC(C(=O)N[C@H]2Cc3ccc(F)c(C(=O)O)c3OB2O)c2cc(F)c(O)c(O)c2Cl)C1=O)Nc1cccnc1 (stereo partly drawn) [Example 259, (3R)-3-(2-(2-chloro-5-fluoro-3,4-dihydroxyphenyl)-2-(2-oxo-3-(3-(3-(pyridin-3-yl)ureido)propyl)imidazolidine-1-carboxamido)acetamido)-7-fluoro-2-hydroxy-3,4-dihydro-2H-benzo[e][1,2]oxaborinine-8-carboxylic acid] | 10 to 50 | < 1 | < 10
CN(CCN1CCN(C(=O)N[C@@H](C(=O)N[C@H]2Cc3ccc(F)c(C(=O)O)c3OB2O)c2cc(F)c(O)c(O)c2Cl)C(=O)C1=O)Cc1ccc(C(N)=O)cc1 [Example 226, (R)-3-((R)-2-(4-(2-((4-carbamoylbenzyl)(methyl)amino)ethyl)-2,3-dioxopiperazine-1-carboxamido)-2-(2-chloro-5-fluoro-3,4-dihydroxyphenyl)acetamido)-7-fluoro-2-hydroxy-3,4-dihydro-2H-benzo[e][1,2]oxaborinine-8-carboxylic acid] | 10 to 50 | < 1 | 
O=C(NCCCN1CCN(C(=O)NC(C(=O)N[C@H]2Cc3ccc(F)c(C(=O)O)c3OB2O)c2cc(F)c(O)c(O)c2Cl)C(=O)C1=O)Nc1ccncc1 (stereo partly drawn) [Example 228, (3R)-3-(2-(2-chloro-5-fluoro-3,4-dihydroxyphenyl)-2-(2,3-dioxo-4-(3-(3-(pyridin-4-yl)ureido)propyl)piperazine-1-carboxamido)acetamido)-7-fluoro-2-hydroxy-3,4-dihydro-2H-benzo[e][1,2]oxaborinine-8-carboxylic acid] | 10 to 50 | < 1 | 10 to 50
CN(CCN1CCN(C(=O)N[C@@H](C(=O)N[C@H]2Cc3ccc(F)c(C(=O)O)c3OB2O)c2cc(F)c(O)c(O)c2Cl)C(=O)C1=O)Cc1cccc(C(N)=O)c1 [Example 225, (R)-3-((R)-2-(4-(2-((3-carbamoylbenzyl)(methyl)amino)ethyl)-2,3-dioxopiperazine-1-carboxamido)-2-(2-chloro-5-fluoro-3,4-dihydroxyphenyl)acetamido)-7-fluoro-2-hydroxy-3,4-dihydro-2H-benzo[e][1,2]oxaborinine-8-carboxylic acid] | 10 to 50 | < 1 | 
CN(CCN1CCN(C(=O)NC(C(=O)N[C@H]2Cc3ccc(F)c(C(=O)O)c3OB2O)c2cc(F)c(O)c(O)c2Cl)C(=O)C1=O)S(=O)(=O)c1ccc(C(N)=O)cc1 (stereo partly drawn) [Example 223, (3R)-3-(2-(4-(2-((4-carbamoyl-N-methylphenyl)sulfonamido)ethyl)-2,3-dioxopiperazine-1-carboxamido)-2-(2-chloro-5-fluoro-3,4-dihydroxyphenyl)acetamido)-7-fluoro-2-hydroxy-3,4-dihydro-2H-benzo[e][1,2]oxaborinine-8-carboxylic acid] | < 10 | < 1 | 
O=C(NCCCN1CCN(C(=O)NC(C(=O)N[C@H]2Cc3ccc(F)c(C(=O)O)c3OB2O)c2cc(F)c(O)c(O)c2Cl)C(=O)C1=O)c1ccc(O)cc1 (stereo partly drawn) [Example 203, (3R)-3-(2-(2-chloro-5-fluoro-3,4-dihydroxyphenyl)-2-(4-(3-(4-hydroxybenzamido)propyl)-2,3-dioxopiperazine-1-carboxamido)acetamido)-7-fluoro-2-hydroxy-3,4-dihydro-2H-benzo[e][1,2]oxaborinine-8-carboxylic acid] | < 10 | < 1 | 10 to 50
O=C(NCCCN1CCN(C(=O)NC(C(=O)N[C@H]2Cc3ccc(F)c(C(=O)O)c3OB2O)c2cc(F)c(O)c(O)c2Cl)C(=O)C1=O)c1cccc(O)c1 (stereo partly drawn) [Example 204, (3R)-3-(2-(2-chloro-5-fluoro-3,4-dihydroxyphenyl)-2-(4-(3-(3-hydroxybenzamido)propyl)-2,3-dioxopiperazine-1-carboxamido)acetamido)-7-fluoro-2-hydroxy-3,4-dihydro-2H-benzo[e][1,2]oxaborinine-8-carboxylic acid] | 10 to 50 | < 1 | 10 to 50
O=C(NCCCN1CCN(C(=O)NC(C(=O)N[C@H]2Cc3ccc(F)c(C(=O)O)c3OB2O)c2cc(F)c(O)c(O)c2Cl)C(=O)C1=O)Nc1ccc(O)cc1 (stereo partly drawn) [Example 227, (3R)-3-(2-(2-chloro-5-fluoro-3,4-dihydroxyphenyl)-2-(4-(3-(3-(4-hydroxyphenyl)ureido)propyl)-2,3-dioxopiperazine-1-carboxamido)acetamido)-7-fluoro-2-hydroxy-3,4-dihydro-2H-benzo[e][1,2]oxaborinine-8-carboxylic acid] | 10 to 50 | < 1 | 10 to 50
O=C(NCCN1CCN(C(=O)NC(C(=O)N[C@H]2Cc3ccc(F)c(C(=O)O)c3OB2O)c2cc(F)c(O)c(O)c2Cl)C1=O)c1nccs1 (stereo partly drawn) [Example 247, (3R)-3-(2-(2-chloro-5-fluoro-3,4-dihydroxyphenyl)-2-(2-oxo-3-(2-(thiazole-2-carboxamido)ethyl)imidazolidine-1-carboxamido)acetamido)-7-fluoro-2-hydroxy-3,4-dihydro-2H-benzo[e][1,2]oxaborinine-8-carboxylic acid] |  | < 1 | 10 to 50
O=C(NCCN1CCN(C(=O)NC(C(=O)N[C@H]2Cc3ccc(F)c(C(=O)O)c3OB2O)c2cc(F)c(O)c(O)c2Cl)C1=O)Nc1cccc(O)c1 (stereo partly drawn) [Example 249, (3R)-3-(2-(2-chloro-5-fluoro-3,4-dihydroxyphenyl)-2-(3-(2-(3-(3-hydroxyphenyl)ureido)ethyl)-2-oxoimidazolidine-1-carboxamido)acetamido)-7-fluoro-2-hydroxy-3,4-dihydro-2H-benzo[e][1,2]oxaborinine-8-carboxylic acid] | 10 to 50 | < 1 | 
CN(CCN1CCN(C(=O)N[C@@H](C(=O)N[C@H]2Cc3ccc(F)c(C(=O)O)c3OB2O)c2cc(F)c(O)c(O)c2Cl)C(=O)C1=O)Cc1ccc(N)nc1 [Example 209, (R)-3-((R)-2-(4-(2-(((6-aminopyridin-3-yl)methyl)(methyl)amino)ethyl)-2,3-dioxopiperazine-1-carboxamido)-2-(2-chloro-5-fluoro-3,4-dihydroxyphenyl)acetamido)-7-fluoro-2-hydroxy-3,4-dihydro-2H-benzo[e][1,2]oxaborinine-8-carboxylic acid] | 10 to 50 | < 1 | 

Source: patent US20240270762A1, “PENICILLIN-BINDING PROTEIN INHIBITORS” (priority 2021, published 2024)
